Series [1] deals with his-tagged HA (H5) protein binding to A549 cells. Also noted: species or system influenza A virus H5. The following applies: for pIC50: read-out: IC50 HA (H5) protein binding to A549 cells.
Series [2] deals with HIV/H5N1 pseudovirus. The format is cell-based, influenza A virus H5N1. The following applies: 10 µM.
The subject of series [3] is H1N1-GFP (A/Puerto Rico/8/34, NS1-GFP). The format is cell-based, influenza A virus H1N1. The following applies: for pIC50: read-out: IC50 anti-H1N1.
Series [4] deals with HIV/H5N1 pseudovirus. Format: cell-based, influenza A virus A/Goose/Qinghai/59/05 (H5N1). Particulars: read-out: IC50 HIV/H5N1.
Series [5] deals with A/Puerto Rico/8/34 (H1N1). The format is cell-based, influenza A virus H1N1. Particulars: read-out: IC50 H1N1 plaque reduction.
In series [6] the test system is VN04Low (H5N1), A/Vietnam/1203/04. Format: cell-based, influenza A virus H5N1.
The next series has as its system A/HongKong/2/68 (H3N2). The format is cell-based, influenza A virus H3N2.
Series [7] concerns HIV/H5N1 pseudovirus HA-mediated hemolysis. Particulars: read-out: IC50 hemolysis inhibition; pH 5.
In series [8] the test system is H1N1-GFP (A/Puerto Rico/8/34, NS1-GFP). Format: cell-based, influenza A virus H1N1.
The subject of another series is VN04Low (H5N1). Format: cell-based, influenza A virus H5N1. Particulars: read-out: IC50 H5N1 plaque reduction.
Series [9] concerns A/rhea/North Carolina/39482/93 (H7N1). Format: cell-based, influenza A virus H7N1.
In another series the test system is A549 cells. As to the kind of experiment: Cell viability assay. The following applies: 48 h, CellTiter-Glo. (In general: Cellular ATP, detected with luciferase, serves as a proxy for viable cell number.)
The subject of series [10] is A/Puerto Rico/8/34 (H1N1). The following applies: oral administration; ref van Dongen et al., 2019; cited from earlier work.

pIC50: −log10 of the molar value.

Turning to `CC(=O)N[C@H]1[C@H]([C@H](O)[C@H](O)CO)O[C@@](O[C@H]2[C@@H](O)[C@@H](CO)O[C@@H](O[C@H]3[C@H](O)[C@@H](O)C(O)O[C@@H]3CO)[C@@H]2O)(C(=O)O)C[C@@H]1O` (stereo partly shown) [2,3-sialyllactose], in series [1], the “inhibition of HA (H5) protein binding at 9 mM” value is “inhibited protein binding completely” and the pIC50 is 2.74.

As to `CC(=O)N[C@H]1[C@H]([C@H](O)[C@H](O)CO)O[C@@](OC[C@H]2O[C@@H](O[C@H]3[C@H](O)[C@@H](O)C(O)O[C@@H]3CO)[C@H](O)[C@@H](O)[C@H]2O)(C(=O)O)C[C@@H]1O` (stereo partly shown) [2,6-sialyllactose], in [1], the “inhibition of HA (H5) protein binding at 27 mM” value came out at 47% and the pIC50 is 1.53.

For `CC(C)N1CCC(NC(=O)c2ccc(Cl)cc2Cl)CC1` [CBS1116, 2,4-dichloro-N-(1-isopropyl-4-piperidinyl) benzamide], in the series on HIV/H5N1 pseudovirus [2], the “inhibition of HIV/H5N1 infection, added at 0h” value was ~ 99%; the “inhibition of HIV/H5N1 infection, added at +1h” value is given as 75%; the “inhibition of HIV/H5N1 infection, added at +2h” value was 41%; the “inhibition of HIV/H5N1 infection, added at -1h” value was “no inhibition”. Further, in [3], the “H1N1-GFP infection at 5 μM” value is on record as “completely blocked”, the “concentration at which significant inhibition of H1N1 was observed” value came to 5 µM and the pIC50 is 6.40. The “cell toxicity to MDCK cells” value with MDCK cells is “no cell toxicity”. The pIC50 with HIV/H5N1 pseudovirus [4] is 5.41. Moreover, in series [5], the pIC50 is 6.40. Further, the “inhibitory activity against VN04Low strain” value in series [6] was “inhibitory activity against VN04Low strain in a concentration-dependent manner”. For the same molecule, the “inhibition against H3N2” value in the series with A/HongKong/2/68 (H3N2) is recorded as “no inhibition”. Further, the pIC50 in series [7] was 5.22. Further, in [8], the “cells infected by H1N1-GFP, added at 0h” value was 0%; the “cells infected by H1N1-GFP, added at +1h” value was determined as 17%; the “cells infected by H1N1-GFP, added at +2h” value is listed as 26%; the “cells infected by H1N1-GFP, added at +3h” value turned out to be 33%. Besides, in [8], the “cells infected by H1N1-GFP, added at -1h” value came out at 38%. Also, in [1], the “HA protein still bound to the cells” value was found to be 100%. In addition, in the series with VN04Low (H5N1), the pIC50 was 4.86. Besides, in series [9], the “inhibition against H7N1” value is listed as “no inhibition”.

Turning to `CC(C)N1CCC(NC(=O)c2c(Cl)cccc2Cl)CC1` [CBS1117], the pIC50 in [3] is 7.15. In the series on A549 cells, this molecule displayed a CC50 of 274 µM.

Regarding `CC(=O)Nc1ccc2oc(-c3ccnc(C(=O)N4CCN([C@H](c5ccccc5)c5nnn(C)n5)CC4)c3)nc2c1` [JNJ4796], the “protection of mice against H1N1 challenge” value in series [10] is “protects mice”.

What is called CC50 is the concentration giving 50% cytotoxicity.

These data come from PMC7243365 (Antiviral research, 2020).
